# Patent US8609690B2, “Aryl- and heteroarylcarbonyl derivatives of substituted nortropanes, medicaments containing such compounds and their use” (Boehringer Ingelheim International GmbH, priority 2008, dated 2013)
# Target: T1, 11β-HSD 1 (Homo sapiens, UniProt P28845)
# T1 construct: detecting cortisol generated from cortisterone by human liver microsomes; from tissue; host or cells: human liver microsomes
# Experiment: In vitro inhibition of 11β-HSD 1, HTRF detection of cortisol generated by human liver microsomes
# Format: biochemical
# Conditions: 1 μM test compound, 100% indicates no inhibition, zero or below zero indicates complete inhibition (relative to carbenoxolone)
# Procedure: Briefly, compounds were incubated for 1 hour at 37° C. in Tris buffer (20 mM tris, 5 mM EDTA, pH 6.0) containing NADPH (200 μM) and cortisone (80 nM). Cortisol generated in the reaction is then detected with a competitive immunoassay, involving two HTRF conjugates: cortisol linked to XL665 and anti-cortisol antibody labeled with Europium cryptate. The incubation period for detection reaction was typically 2 hours. The amount of cortisol is determined by reading the time-resolved fluorescence of the wells (Ex 320/75 nm; Em 615/8.5 nm and 665/7.5 nm). The ratio of the two emission signals is then calculated (Em665*10000/Em615). […] Each assay also contained a calibration curve with cortisol to transform the fluorescent data into cortisol concentrations. Percent inhibition of each compound was determined relative to the carbenoxolone signal. In Table 2 the 11β-HSD 1 inhibitory activities at 1 μM concentration of test compound, determined as described above, of the compounds listed in Table 3 are compiled, wherein 100% indicates no inhibition and a value of zero or below zero indicates complete inhibition.
# T1 sequence (P28845 whole entry): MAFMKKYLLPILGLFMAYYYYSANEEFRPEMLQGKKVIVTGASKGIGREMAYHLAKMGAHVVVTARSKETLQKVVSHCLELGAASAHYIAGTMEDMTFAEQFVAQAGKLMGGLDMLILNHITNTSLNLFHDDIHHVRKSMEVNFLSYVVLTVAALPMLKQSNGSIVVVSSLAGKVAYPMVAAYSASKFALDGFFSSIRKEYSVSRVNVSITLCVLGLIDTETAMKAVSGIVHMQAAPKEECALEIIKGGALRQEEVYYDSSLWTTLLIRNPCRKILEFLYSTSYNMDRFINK
row,Compound,"Inhibitory activity on 11β-HSD 1, % CTL"
1,"CC(C)(C)Oc1cccc(C(=O)N2[C@@H]3CC[C@H]2C[C@@H](c2ccc(F)cc2)C3)c1 [Example 45, endo-(3-tert-Butoxy-phenyl)-[3-(4-fluoro-phenyl)-8-aza-bicyclo[3.2.1]oct-8-yl]-methanone]",82 % CTL
2,"O=C1Cc2ccc(C(=O)N3[C@@H]4CC[C@H]3C[C@@H](c3ccc(F)cc3)C4)cc2N1 [Example 46, endo-6-[3-(4-Fluoro-phenyl)-8-aza-bicyclo[3.2.1]octane-8-carbonyl]-1,3-dihydro-indol-2-one]",97 % CTL
3,"O=C1Cc2cc(C(=O)N3[C@@H]4CC[C@H]3C[C@@H](c3ccc(F)cc3)C4)ccc2N1 [Example 47, endo-5-[3-(4-Fluoro-phenyl)-8-aza-bicyclo[3.2.1]octane-8-carbonyl]-1,3-dihydro-indol-2-one]",−17 % CTL
4,"Nc1nc2cc(C(=O)N3[C@@H]4CC[C@H]3C[C@@H](c3ccc(F)cc3)C4)ccc2[nH]1 [Example 48, endo-(2-Amino-1H-benzoimidazol-5-yl)-[3-(4-fluoro-phenyl)-8-aza-bicyclo[3.2.1]oct-8-yl]-methanone]",1 % CTL
5,"CC(C)(C)Oc1ccc(C(=O)N2[C@@H]3CC[C@H]2C[C@@H](c2ccc(F)cc2)C3)cc1 [Example 49, endo-(4-tert-Butoxy-phenyl)-[3-(4-fluoro-phenyl)-8-aza-bicyclo[3.2.1]oct-8-yl]-methanone]",67 % CTL
6,"Cc1cc2cc(C(=O)N3[C@@H]4CC[C@H]3C[C@@H](c3ccc(F)cc3)C4)ccc2[nH]1 [Example 50, endo-[3-(4-Fluoro-phenyl)-8-aza-bicyclo[3.2.1]oct-8-yl]-(2-methyl-1H-indol-5-yl)-methanone]",6 % CTL
7,"CCn1ccc2ccc(C(=O)N3[C@@H]4CC[C@H]3C[C@@H](c3ccc(F)cc3)C4)cc21 [Example 51, endo-(1-Ethyl-1H-indol-6-yl)-[3-(4-fluoro-phenyl)-8-aza-bicyclo[3.2.1]oct-8-yl]-methanone]",41 % CTL
8,"Cc1[nH]c2cc(C(=O)N3[C@@H]4CC[C@H]3C[C@@H](c3ccc(F)cc3)C4)ccc2c1C [Example 52, endo-(2,3-Dimethyl-1H-indol-6-yl)-[3-(4-fluoro-phenyl)-8-aza-bicyclo[3.2.1]oct-8-yl]-methanone]",82 % CTL
9,"Cn1ccc2ccc(C(=O)N3[C@@H]4CC[C@H]3C[C@@H](c3ccc(F)cc3)C4)cc21 [Example 53, endo-[3-(4-Fluoro-phenyl)-8-aza-bicyclo[3.2.1]oct-8-yl]-(1-methyl-1H-indol-6-yl)-methanone]",−55 % CTL
10,"O=C(c1ccc2c(c1)CCCN2)N1[C@@H]2CC[C@H]1C[C@@H](c1ccc(F)cc1)C2 [Example 54, endo-[3-(4-Fluoro-phenyl)-8-aza-bicyclo[3.2.1]oct-8-yl]-(1,2,3,4-tetrahydro-quinolin-6-yl)-methanone]",−56 % CTL
11,"Cc1ccc(C(=O)N2[C@@H]3CC[C@H]2C[C@@H](c2ccc(F)cc2)C3)cc1O [Example 55, endo-[3-(4-Fluoro-phenyl)-8-aza-bicyclo[3.2.1]oct-8-yl]-(3-hydroxy-4-methyl-phenyl)-methanone]",31 % CTL
12,"O=C(c1ccccc1F)N1[C@@H]2CC[C@H]1C[C@@H](c1ccc(F)cc1)C2 [Example 57, endo-(2-Fluoro-phenyl)-[3-(4-fluoro-phenyl)-8-aza-bicyclo[3.2.1]oct-8-yl]-methanone]",63 % CTL
13,"CC(=O)Cc1ccc(C(=O)N2[C@@H]3CC[C@H]2C[C@@H](c2ccc(F)cc2)C3)cc1 [Example 58, endo-1-{4-[3-(4-Fluoro-phenyl)-8-aza-bicyclo[3.2.1]octane-8-carbonyl]-phenyl}-propan-2-one]",68 % CTL
14,"Cn1c(=O)[nH]c2cc(C(=O)N3[C@@H]4CC[C@H]3C[C@@H](c3ccc(F)cc3)C4)ccc21 [Example 59, endo-5-[3-(4-Fluoro-phenyl)-8-aza-bicyclo[3.2.1]octane-8-carbonyl]-1-methyl-1,3-dihydro-benzoimidazol-2-one]",95 % CTL
15,"O=C1NCCN1c1cccc(C(=O)N2[C@@H]3CC[C@H]2C[C@@H](c2ccc(F)cc2)C3)c1 [Example 60, endo-1-{3-[3-(4-Fluoro-phenyl)-8-aza-bicyclo[3.2.1]octane-8-carbonyl]-phenyl}-imidazolidin-2-one]",63 % CTL
16,"COC(=O)c1cccc(C(=O)N2[C@@H]3CC[C@H]2C[C@@H](c2ccc(F)cc2)C3)c1 [Example 61, endo-3-[3-(4-Fluoro-phenyl)-8-aza-bicyclo[3.2.1]octane-8-carbonyl]-benzoic acid methyl ester]",94 % CTL

row,Compound,"Inhibitory activity on 11β-HSD 1, % CTL"
1,"O=C(c1ccc2cc[nH]c2c1)N1[C@@H]2CC[C@H]1C[C@@H](c1ccc(F)cc1)C2 [Example 62, endo-[3-(4-Fluoro-phenyl)-8-aza-bicyclo[3.2.1]oct-8-yl]-(1H-indol-6-yl)-methanone]",−47 % CTL
2,"N#Cc1ccccc1C(=O)N1[C@@H]2CC[C@H]1C[C@@H](c1ccc(F)cc1)C2 [Example 63, endo-2-[3-(4-Fluoro-phenyl)-8-aza-bicyclo[3.2.1]octane-8-carbonyl]-benzonitrile]",91 % CTL
3,"CC(=O)Nc1cccc(C(=O)N2[C@@H]3CC[C@H]2C[C@@H](c2ccc(F)cc2)C3)c1 [Example 64, endo-N-{3-[3-(4-Fluoro-phenyl)-8-aza-bicyclo[3.2.1]octane-8-carbonyl]-phenyl}-acetamide]",99 % CTL
4,"O=C1CCCN1c1ccc(C(=O)N2[C@@H]3CC[C@H]2C[C@@H](c2ccc(F)cc2)C3)cc1 [Example 65, endo-1-{4-[3-(4-Fluoro-phenyl)-8-aza-bicyclo[3.2.1]octane-8-carbonyl]-phenyl}-pyrrolidin-2-one]",33 % CTL
5,"Cn1cnc2cc(C(=O)N3[C@@H]4CC[C@H]3C[C@@H](c3ccc(F)cc3)C4)ccc21 [Example 66, endo-[3-(4-Fluoro-phenyl)-8-aza-bicyclo[3.2.1]oct-8-yl]-(1-methyl-1H-benzoimidazol-5-yl)-methanone]",77 % CTL
6,"CS(=O)(=O)c1cccc(C(=O)N2[C@@H]3CC[C@H]2C[C@@H](c2ccc(F)cc2)C3)c1 [Example 67, Endo-[3-(4-Fluoro-phenyl)-8-aza-bicyclo[3.2.1]oct-8-yl]-(3-methanesulfonyl-phenyl)-methanone]",85 % CTL
7,"Cn1nnc2cc(C(=O)N3[C@@H]4CC[C@H]3C[C@@H](c3ccc(F)cc3)C4)ccc21 [Example 68, endo-[3-(4-Fluoro-phenyl)-8-aza-bicyclo[3.2.1]oct-8-yl]-(1-methyl-1H-benzotriazol-5-yl)-methanone]",66 % CTL
8,"Cc1nc2cc(C(=O)N3[C@@H]4CC[C@H]3C[C@@H](c3ccc(F)cc3)C4)ccc2c(=O)[nH]1 [Example 69, endo-7-[3-(4-Fluoro-phenyl)-8-aza-bicyclo[3.2.1]octane-8-carbonyl]-2-methyl-3H-quinazolin-4-one]",93 % CTL
9,"O=C(c1ccc2nccnc2c1)N1[C@@H]2CC[C@H]1C[C@@H](c1ccc(F)cc1)C2 [Example 70, endo-[3-(4-Fluoro-phenyl)-8-aza-bicyclo[3.2.1]oct-8-yl]-quinoxalin-6-yl-methanone]",19 % CTL
10,"CC(=O)NCc1ccc(C(=O)N2[C@@H]3CC[C@H]2C[C@@H](c2ccc(F)cc2)C3)cc1 [Example 71, endo-N-{4-[3-(4-Fluoro-phenyl)-8-aza-bicyclo[3.2.1]octane-8-carbonyl]-benzyl}-acetamide]",41 % CTL
11,"O=C(c1cccc2[nH]cnc12)N1[C@@H]2CC[C@H]1C[C@@H](c1ccc(F)cc1)C2 [Example 73, endo-(1H-Benzoimidazol-4-yl)-[3-(4-fluoro-phenyl)-8-aza-bicyclo[3.2.1]oct-8-yl]-methanone]",90 % CTL
12,"Cc1nc2ccc(C(=O)N3[C@@H]4CC[C@H]3C[C@@H](c3ccc(F)cc3)C4)cc2[nH]1 [Example 74, endo-[3-(4-Fluoro-phenyl)-8-aza-bicyclo[3.2.1]oct-8-yl]-(2-methyl-3H-benzoimidazol-5-yl)-methanone]",69 % CTL
13,"O=C1CCCN1c1cccc(C(=O)N2[C@@H]3CC[C@H]2C[C@@H](c2ccc(F)cc2)C3)c1 [Example 75, endo-1-{3-[3-(4-Fluoro-phenyl)-8-aza-bicyclo[3.2.1]octane-8-carbonyl]-phenyl}-pyrrolidin-2-one]",92 % CTL
14,"O=C(c1ccc2c(c1)OC(F)(F)O2)N1[C@@H]2CC[C@H]1C[C@@H](c1ccc(F)cc1)C2 [Example 76, endo-(2,2-Difluoro-benzo[1,3]dioxol-5-yl)-[3-(4-fluoro-phenyl)-8-aza-bicyclo[3.2.1]oct-8-yl]-methanone]",76 % CTL
15,"O=C(c1ccc(F)c(F)c1)N1[C@@H]2CC[C@H]1C[C@@H](c1ccc(F)cc1)C2 [Example 77, endo-(3,4-Difluoro-phenyl)-[3-(4-fluoro-phenyl)-8-aza-bicyclo[3.2.1]oct-8-yl]methanone]",47 % CTL
16,CN1C(=O)Cc2cc(C(=O)N3[C@@H]4CC[C@H]3C[C@@H](c3ccc(F)cc3)C4)ccc21 [Example 78],49 % CTL
